# Literature values in patent US20160000732A1, “ORAL PHARMACEUTICAL COMPOSITIONS OF OSPEMIFENE” (CADILA HEALTHCARE LIMITED, priority 2014, published 2016).
# Tests used:
# [1] = classical hormonal tests, Kangas 1990
# [2] = experimental models and human volunteers; WO 1996/07402, WO 1997/32574
structure (smiles),measurement,setting,value
"OCCOc1ccc(/C(=C(/CCCl)c2ccccc2)c2ccccc2)cc1 [Ospemifene, 2-[4-(4-chloro-1,2-diphenylbut-1-enyl)phenoxy]ethanol]",estrogenic and antiestrogenic effects,[1],relatively weak
same,total and LDL cholesterol levels,[2],decreases
